Measurements: US20020103251A1, “Cholesterol-lowering therapy” (priority 1997, published 2002)

What was measured:
[1] = test system: men and women with average to mildly elevated total and LDL-cholesterol, below average HDL-cholesterol and no clinical evidence of atherosclerotic …; assay: AFCAPS/TexCAPS double-blind, randomized, placebo controlled primary prevention trial of lovastatin; format: in vivo, human
Description: The following is a description of a clinical trial referred to herein as “AFCAPS/TexCAPS” or “AFCAPS” employing lovastatin to exemplify the methods of the present invention.
AFCAPS/TexCAPS was a primary prevention endpoint event trial which: (1) included unstable angina as a primary endpoint, reflecting the trend to treat coronary heart disease aggressively before a myocardial infarction has occurred; 2) involved aggressive pharmacologic intervention, with titration, to target an LDL-cholesterol goal lower than current National Cholesterol Education Panel guidelines for primary prevention; and 3) included a cohort comprised of men and women with a broad age range encompassing the elderly and included persons with a lipid profile consisting of average total and LDL-cholesterol, below average HDL-cholesterol levels; total cholesterol/HDL-cholesterol ratio greater than or equal to 4.5, with a baseline mean ratio of 6.1 for the cohort; and LDL/HDL-cholesterol ratio greater than or equal to 4.
Entrance inclusion criteria were LDL-cholesterol 130-190 mg/dl (or <130 if the ratio of total cholesterol/HDL is >6) and HDL-cholesterol ≦45 mg/dl for men and ≦47 mg/dl for women.
AFCAPS/TexCAPS was a double-blind, randomized, placebo controlled trial designed and powered to investigate whether chronic lipid-lowering, with lovastatin will decrease the rate of first acute major coronary events (e.g. sudden cardiac death, fatal and non-fatal myocardial infarction and unstable angina) compared to intervention with diet alone during at least 4.5 years of follow-up in a cohort without clinical evidence of atherosclerotic cardiovascular disease and with average to mildly elevated total cholesterol, average to midly elevated LDL-cholesterol, and below average HDL-cholesterol. Secondary objectives included whether chronic treatment with lovastatin, compared to placebo, would decrease cardiovascular morbidity and mortality across the spectrum of clinical events, by measuring the rates of: (1) fatal and non-fatal coronary revascularization procedures (2) unstable angina, (3) fatal and non-fatal myocardial infarction, (4) fatal and non-fatal cardiovascular events, (5) fatal and non-fatal coronary events.
All participants underwent dietitian taught group instruction in the American Heart Association Step 1 diet commencing at least 12 weeks prior to randomization (Week -12) and reinforced at Weeks-4 and -2. Baseline observations included collection of medical history, health habit and demographic data, physical exam, eye exam (San Antonio clinic only), chest X-ray, mammogram (women), electrocardiogram and analysis of lipids/lipoproteins, hematology, blood chemistry and urine. A 2-week placebo baseline run-in was followed by randomization of eligible compliant participants to treatment with lovastatin or placebo.
Participants included 6605 men and women with normal to mildly elevated total and LDL-cholesterol and below average HDL-cholesterol defined as: total cholesterol 180-264 mg/dl, LDL-cholesterol 130-190 mg/dl, HDL-cholesterol ≦45 mg/dl for men and ≦47 mg/dl for women and triglycerides ≦400 mg/dl. All lipid/lipoprotein entrance criteria had to be met on average at both four and two weeks prior to randomization (after at least eight weeks of diet therapy). In addition, for both total and LDL-cholesterol, the two eligibility determinations had to be within 15% of each other.
Excluded for clinical evidence of atherosclerotic cardiovascular disease were men and women who had: prior history of myocardial infarction; angina; claudication; cerebrovascular accident; or transient ischemic attack. Also excluded were those aged >73 years or <45 years (men) or <55 years (women) or those with secondary hyperlipoproteinemia, nephrotic syndrome, uncontrolled or insulin-dependent diabetes mellitus or uncontrolled hypertension.

[2] = test system: patients with hypercholesterolemia and/or CHD; settings: coronary and carotid arteries; cited from earlier work
[3] = Secondary Endpoint: Fatal and Nonfatal Coronary Events, lovastatin vs placebo
[4] = first acute major coronary events, baseline HDL-C tertile 34.5-39.5 mg/dl
[5] = first acute major coronary events, baseline HDL-C tertile <34.0 mg/dl
[6] = first acute major coronary events, baseline HDL-C tertile >39.5 mg/dl
[7] = first acute major coronary events, baseline LDL-C tertile 142.0-156.8 mg/dl
[8] = first acute major coronary events, baseline LDL-C tertile <142 mg/dl
[9] = first acute major coronary events, baseline LDL-C tertile >156.9 mg/dl

CC[C@H](C)C(=O)O[C@H]1C[C@@H](C)C=C2C=C[C@H](C)[C@H](CC[C@@H]3C[C@@H](O)CC(=O)O3)[C@H]21 [lovastatin]
Relative Risk (C.I.) ([1]; Primary Endpoint: acute major coronary events, lovastatin 20-40 mg once a day vs placebo, median 5.2 years): 0.63 (0.50, 0.79), | Relative Risk (C.I.) ([1]; Secondary Endpoint: Fatal and Nonfatal Cardiovascular Events, lovastatin vs placebo): 0.75 (0.62, 0.91), | Relative Risk (C.I.) [1, 3]: 0.75 (0.61, 0.92), | Risk Reduction [1, 3]: 25% | Relative Risk (C.I.) ([1]; Secondary Endpoint: Fatal and Nonfatal MI, lovastatin vs placebo): 0.60 (0.43, 0.83), | Relative Risk (C.I.) ([1]; Secondary Endpoint: Revascularizations, lovastatin vs placebo): 0.67 (0.52, 0.85), | Relative Risk (C.I.) ([1]; Secondary Endpoint: Unstable Angina, lovastatin vs placebo): 0.68 (0.48, 0.95), | % change in HDL-C from baseline to the one year point ([1]; baseline HDL-C tertile 34.5-39.5 mg/dl): 6.2% | % change in HDL-C from baseline to the one year point ([1]; baseline HDL-C tertile <34.0 mg/dl): 7.4% | % change in HDL-C from baseline to the one year point ([1]; baseline HDL-C tertile >39.5 mg/dl): 4.3% | % change in LDL-C from baseline to the one year point ([1]; baseline LDL-C tertile 142.0-156.8 mg/dl): −26.0% | % change in LDL-C from baseline to the one year point ([1]; baseline LDL-C tertile <142 mg/dl): −20.1% | % change in LDL-C from baseline to the one year point ([1]; baseline LDL-C tertile >156.9 mg/dl): −28.9% | dependence of risk reduction on baseline LDL-C and HDL-C ([1]; first acute major coronary events by LDL-C and HDL-C tertiles at randomization): independent of baseline LDL-C and HDL-C | Relative Risk (95% C.I.) [1, 4]: 0.57 | Risk Reduction [1, 4]: 43% | Relative Risk (95% C.I.) [1, 5]: 0.55 | Risk Reduction [1, 5]: 45% | Relative Risk (95% C.I.) [1, 6]: 0.85 | Risk Reduction [1, 6]: 15% | Relative Risk (95% C.I.) [1, 7]: 0.64 | Risk Reduction [1, 7]: 36% | Relative Risk (95% C.I.) [1, 8]: 0.66 | Risk Reduction [1, 8]: 34% | Relative Risk (95% C.I.) [1, 9]: 0.59 | Risk Reduction [1, 9]: 41% | progression of atherosclerotic lesions [2]: slow the progression of atherosclerotic lesions
